The results in this text go back to US20240117303A1, “METHODS AND COMPOSITIONS FOR GENERATING HUMAN MIDBRAIN DOPAMINERGIC NEURONS FROM NEURAL PROGENITOR CELLS” (Trailhead Biosystems Inc., priority 2022, published 2024).

Holding throughout (assay type): cell-based, human
Assay [1] deals with stage 1 neural stem cells. Put plainly: HD-DoE 12-factor experiment for stage 2 recipe (second model, FIG. 8-10, 13). The following applies: for impact on expression of FOXA2 / impact on expression of LMX1A: dynamic profile, 12 effectors. As for the experimental part:
To test additional factors like FGF8 that is routinely used in midbrain differentiation protocols, we ran another 12-factor experiment consisting of LDN193189, BMP7, A 83-01, Activin A, Takinib, PD0325901, MK2206, FGF8b, AZD3147, MHY1485, GSI-XX and Yhhu 3792. Similar to the previous experiment, hiPSCs were treated with stage 1 media for 3 days and then treated with 96 conditions of combinations of the factors for an additional 3 days. When this model was optimized for maximum expression of FOXA2, BMP7 with factor contribution of 13.7 and MK2206 with 14.2 had the most impact on its expression followed by AZD 3147 with factor contribution of 10.9.
To assess the impact of elimination of each validated factor, we used dynamic profile analysis and compared the expression level of genes of interest in absence of each finalized factor while others are present.
In the stage 2 recipe, each of the six finalized factors were removed while the other five factors were present and the expression levels of FOXA2, LMX1A and GBX2 were assessed, compared to the levels in the presence of all factors. According to the first experiment model, the absence of TTNPB lead to a rise of GBX2 expression, while the value of FOXA2 and LMX1A reduced drastically from 10,000 to 0 and 30,000 to 15,000, respectively. The absence of A 83-01 reduced the expression of FOXA2 from 10,000 to 7000, however, as expected, the value of LMX1A increased from 30,000 to 40,000. […] According to the second experiment model, the absence of BMP7 and MK2206 both reduced the level of FOXA2 while increasing the value of LMX1A, with BMP7 as the main effector that led to 0 expression of FOXA2.

For assay [2], the system named is stage 2 neural progenitors. Put plainly: HD-DoE another 12-factor model for stage 3 recipe (FIG. 24, 25, 30). The following applies: for level of MSX1 in absence of the factor / level of SOX6 in absence of the factor: AZD3147, DBZ, PD0325901 and BMP7 set; for level of MSX1 in absence of the factor: 45 with all factors; for level of SOX6 in absence of the factor: 185 with all factors; for impact on expression of MSX1 / impact on expression of SOX6: dynamic profile, 12 effectors; for factor contribution: model optimized for SOX6, positive impact. As for the experimental part:
In another 12-factor model, additional factors including Activin A, Takinib (TAK inhibitor), FGF8b, AZD3147 (mTOR antagonist), MHY1485 (mTOR agonist), and Yhhu-3792 (Notch agonist) were tested. Some of the factors from previous model (BMP7, A 8301, LDN193189, PD0325901, MK2206 and DBZ) were also included.
(§1) To assess the impact of elimination of each validated factor identified in Example 5 for the stage 3 and stage 4 recipes, we used dynamic profile analysis and compared the expression level of genes of interest in absence of each finalized factor while others are present.
In another model, to determine the combinatorial effect of AZD3147 and DBZ on gene profile of cells in presence of other factors of final recipe, the expression levels of SOX6 and MSX1 were compared in the absence of each of the factors in the presence of PD0325901 and BMP7. These two compounds were the only final compounds that were included in inputs of this experimental model The results are shown in FIG. 30A and FIG. 30B. […] When DBZ was removed, the level of SOX6 and MSX1 both decreased to 140 and 35, respectively.

The test system of assay [3] is MB neural progenitors. The experiment in a line: HD-DoE 8-factor model, DBZ and AZD3147 (FIG. 26). Conditions: dynamic profile.
The test system of assay [4] is stage 2 neural progenitors. The experiment in a line: HD-DoE 12-factor model for stage 3 recipe (FIG. 19-23, 29). The following applies: model optimized for maximum expression of KCNJ6; positive regulators.
For assay [5], the system named is stage 3 immature neurons. The experiment in a line: HD-DoE 8-factor experiment for stage 4 recipe (FIG. 27, 28, 31). As for the experimental part: To further differentiate the cells to a mature neuronal identity, additional HD-DoE experiments were performed on the cells that were cultured in stage 1, stage 2 and stage 3 differentiation media. After 4 days, gene expression of cells in different combinatorial conditions were investigated. At this time, we focused on maximal expression of more mature dopaminergic genes such as NR4A2, PITX3 and TH (Tiklová et al. (2020) Nat Commun. 11:2434; Fiorenzano et al. (2021) Nat Commun., 12:7302). In one model, cells were treated with a combinatorial matrix with eight inputs including CHIR99021, BDNF, GDNF, Rosiglitazone, GW7647, DBZ and heparin.
as §1
In the stage 4 recipe, each of six finalized factors were excluded while other factors were present and the expression levels of NR4A2 and PITX3 were assessed compared to the presence of all factors.

Entries after “also recorded” stand apart in the source; their conditions may differ.

Turning to `C[C@H]1COCCN1c1cc(C2(S(=O)(=O)C3CC3)CC2)nc(-c2ccc(NC(=S)NCCO)cc2)n1` [AZD 3147], in assay [1], the “impact on expression of FOXA2” value was “did not reduce” and the “impact on expression of LMX1A” value is given as “significant positive impact”. Moreover, the factor contribution in assay [1] (model optimized for maximum expression of FOXA2, positive impact) stood at 10.9. Besides, in assay [1] (stage 2 recipe, second experiment model), the “level of FOXA2 in absence of the factor” value was “almost no effect”. Also, the “level of LMX1A in absence of the factor” value in assay [1] (stage 2 recipe, second experiment model, 4000 with all factors) was found to be 2000. For the same molecule, in assay [2], the “level of MSX1 in absence of the factor” value is given as “did not change”, the “level of SOX6 in absence of the factor” value was 150, the “impact on expression of MSX1” value is “did not show any significant impact” and the “impact on expression of SOX6” value is recorded as “positive impact”. In assay [2], this molecule displayed a factor contribution of 20.2. Further, in assay [3], the “impact on expression of CORIN, KCNJ6, SOX6 and MSX1” value is “positive regulatory effect; also recorded: Positive impact”.
For `C[C@H](NC(=O)Cc1cc(F)cc(F)c1)C(=O)N[C@@H]1C(=O)N(C)c2ccccc2-c2ccccc21` [DBZ], in assay [4], the factor contribution result is “low factor contributions”. In assay [2], the “level of MSX1 in absence of the factor” value was 35, the “level of SOX6 in absence of the factor” value turned out to be 140, the “impact on expression of MSX1” value is reported as “did not show any significant impact” and the “impact on expression of SOX6” value was “positive impact”. The factor contribution in assay [2] stood at 21.5. In assay [3], the “impact on expression of CORIN, KCNJ6, SOX6 and MSX1” value is listed as “positive regulatory effect; also recorded: Positive impact”. The “impact on expression of NR4A2” value in assay [5] (8-factor model / dynamic profile) is “positive regulatory impact”. Moreover, in assay [5] (stage 4 recipe, other factors present, 40 with all factors), the “expression level of PITX3 in absence of the factor” value is 30. Besides, in assay [5] (stage 4 recipe, other factors present, 400 with all factors), the “expression level of NR4A2 in absence of the factor” value came to 200.
`CCCn1/c(=N/C(=O)c2cccc(C(N)=O)c2)[nH]c2ccccc21` [Takinib]: in assay [1], the “impact on expression of FOXA2” value is “did not make a meaningful positive change” and the “impact on expression of LMX1A” value is recorded as “did not make a meaningful positive change”. Besides, in assay [2], the “impact on expression of MSX1” value is given as “negatively regulate; also recorded: negative impact” and the “impact on expression of SOX6” value is recorded as “positive effect”.

B1: Activin A: effector tested in the HD-DoE experiments (protein, UniProt P08476 311-426, looked up)
Inhibin beta A chain: GLECDGKVNICCKKQFFVSFKDIGWNDWIIAPSGYHANYCEGECPSHIAGTSGSSLSFHSTVINHYRMRGHSPFANLKSCCVPTKLRPMSMLYYDDGQNIIKKDIQNMIVEECGCS
modifications: Inhibin beta A chain
With B1, in assay [1], the “impact on expression of FOXA2” value is recorded as “did not make a meaningful positive change” and the “impact on expression of LMX1A” value is “did not make a meaningful positive change”. Moreover, in assay [2], the “impact on expression of MSX1” value is “negatively regulate; also recorded: negative impact” and the “impact on expression of SOX6” value is “positive effect”.
